According to patent US20240060113A1, “PRESERVATION OF FETAL NUCLEIC ACIDS IN MATERNAL PLASMA” (STRECK LLC, priority 2009, published 2024):

Test system: non-human (lambda) DNA
Experiment: Lambda DNA spiked into plasma, stored at room temperature, Quantitative PCR (Example 2, FIG. 3)
Conditions: plasma stored at room temperature 0 to 14 days
Protocol: Blood samples from the same donor are drawn into two different types of blood collection tubes. One tube contains 500 g/L IDU, 81 g/L Tripotassium EDTA and 47 g/L glycine. The other tube contains only Heparin. All samples are centrifuged at 2100 g for 30 minutes at room temperature to separate the plasma. The plasma is then transferred to new tubes and non-human (lambda) DNA is then spiked into the plasma tubes. The spiked samples are then stored at room temperature for 0, 1, 2, 3, 4, 7, 11, and 14 days. Free circulating DNA is purified using the QIAamp® DNA Blood Mini Kit available from QIAGEN Inc. (Valencia, CA). DNA is extracted from each plasma sample. The samples are then amplified by Quantitative PCR (using iQ SYBR Green Supermix reagents available from BIO-RAD Laboratories (Hercules, California)) to identify the amount of lambda DNA present. […] The expected results of this example are shown in graphic format at FIG. 3. This example confirms that the compositions of the present invention are able to maintain the integrity and amount of DNA present in a blood sample.

Heparin
relative percentage of lambda DNA present: decreases at every consecutive measurement
